pEC50: −log10 of the molar value.
Target: APJ receptor (Homo sapiens (Human), UniProt P35414)
Experiment: [35S]GTPγS binding assay on membranes from CHO cells stably expressing human APJ receptor
Assay type: biochemical
Details: membranes of CHO cells stably expressing human APJ receptor, means of several independent experiments, read-out: Activity hAPJ SPA EC50 IP
Summary of the method: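 Membranes from CHO cells stably expressing human APJ were incubated with 0.2 nM [35S]GTPγS and ligands for 90 min at RT in 20 mM HEPES pH 7.5, 5 mM MgCl2, 200 mM NaCl, 3 μM GDP, 0.1% BSA with WGA PS beads. Nonspecific binding was set with 100 μM GTPγS. EC50 came from non-linear regression.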

Sequence of APJ receptor (P35414 whole entry): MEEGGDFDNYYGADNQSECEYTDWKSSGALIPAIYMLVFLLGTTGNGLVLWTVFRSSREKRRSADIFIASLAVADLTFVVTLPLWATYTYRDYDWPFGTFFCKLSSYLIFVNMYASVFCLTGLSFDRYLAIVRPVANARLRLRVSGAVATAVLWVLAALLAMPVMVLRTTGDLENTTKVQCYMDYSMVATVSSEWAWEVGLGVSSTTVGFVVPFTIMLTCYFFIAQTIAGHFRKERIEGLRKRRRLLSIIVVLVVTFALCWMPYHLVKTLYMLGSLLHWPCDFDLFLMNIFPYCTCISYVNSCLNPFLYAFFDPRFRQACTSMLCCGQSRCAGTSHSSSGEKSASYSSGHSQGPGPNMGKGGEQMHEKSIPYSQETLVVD

SMILES | pEC50
COc1cccc(OC)c1-n1c(NS(=O)(=O)[C@@H](C)Cc2ncc(Cl)cc2C(N)=O)nnc1-c1ccco1 (single isomer, unassigned) [Example 17.0, 5-chloro-2-((2S)-2-((4-(2,6-dimethoxyphenyl)-5-(2-furanyl)-4H-1,2,4-triazol-3-yl)sulfamoyl)propyl)-3-pyridinecarboxamide or 5-chloro-2-((2R)-2-((4-(2,6-dimethoxyphenyl)-5-(2-furanyl)-4H-1,2,4-triazol-3-yl)sulfamoyl)propyl)-3-pyridinecarboxamide] | 9.59
COc1ncnc(OC)c1-n1c(NS(=O)(=O)[C@@H](C)[C@H](OC)c2ncc(C)cn2)nnc1-c1ccc(C)o1 [Example 3.0, (1R,2S)—N-(4-(4,6-dimethoxypyrimidin-5-yl)-5-(5-methylfuran-2-yl)-4H-1,2,4-triazol-3-yl)-1-methoxy-1-(5-methylpyrimidin-2-yl)propane-2-sulfonamide] | 9.51
COc1cccc(OC)c1-n1c(NS(=O)(=O)[C@@H]2C[C@H](O)CN(c3cnc(Cl)c(C#N)c3)C2)nnc1-c1ccc(C)o1 (mixture of isomers) [Example 322.0, (3S,5R)-1-(6-Chloro-5-cyano-3-pyridinyl)-N-(4-(2,6-dimethoxyphenyl)-5-(5-methyl-2-furanyl)-4H-1,2,4-triazol-3-yl)-5-hydroxy-3-piperidinesulfonamide and (3R,5S)-1-(6-chloro-5-cyano-3-pyridinyl)-N-(4-(2,6-dimethoxyphenyl)-5-(5-methyl-2-furanyl)-4H-1,2,4-triazol-3-yl)-5-hydroxy-3-piperidinesulfonamide] | 9.70
COc1cccc(OC)c1-n1c(NS(=O)(=O)CCc2ncc(Cl)cc2C2=CCN(C)CC2)nnc1-c1ccco1 [Example 214.0, 2-(5-Chloro-1′-methyl-1′,2′,3′,6′-tetrahydro-3,4′-bipyridin-2-yl)-N-(4-(2,6-dimethoxyphenyl)-5-(2-furanyl)-4H-1,2,4-triazol-3-yl)ethanesulfonamide] | 9.68
COc1cccc(OC)c1-n1c(NS(=O)(=O)[C@@H](C)[C@@](C)(O)c2ncc(F)cn2)nnc1-c1ccc(C)o1 [Example 242.0, (2S,3S)—N-(4-(2,6-Dimethoxyphenyl)-5-(5-methyl-2-furanyl)-4H-1,2,4-triazol-3-yl)-3-(5-fluoro-2-pyrimidinyl)-3-hydroxy-2-butanesulfonamide] | 9.09
COc1ncnc(OC)c1-n1c(NS(=O)(=O)CCc2ccc(F)cc2C#N)nnc1-c1ccco1 [Example 252.0, 2-(2-Cyano-4-fluorophenyl)-N-(4-(4,6-dimethoxy-5-pyrimidinyl)-5-(2-furanyl)-4H-1,2,4-triazol-3-yl)ethanesulfonamide] | 8.01
COc1cccc(OC)c1-n1c(NS(=O)(=O)[C@H](C)[C@H](O)c2ccc(F)cc2CO)nnc1-c1ccc(C)o1 (single isomer, unassigned) [Example 73.0] | 9.31
COc1cccc(OC)c1-n1c(NS(=O)(=O)[C@H](C)[C@@H](O)c2nccn2C)nnc1-c1ccc(C)o1 (single isomer, unassigned) [Example 297.0, (1S,2R)—N-(4-(2,6-Dimethoxyphenyl)-5-(5-methyl-2-furanyl)-4H-1,2,4-triazol-3-yl)-1-hydroxy-1-(1-methyl-1H-imidazol-2-yl)-2-propanesulfonamide or (1R,2S)—N-(4-(2,6-dimethoxyphenyl)-5-(5-methyl-2-furanyl)-4H-1,2,4-triazol-3-yl)-1-hydroxy-1-(1-methyl-1H-imidazol-2-yl)-2-propanesulfonamide] | 8.06
COc1cccc(OC)c1-n1c(NS(=O)(=O)[C@H](C)[C@@H](C)c2ncc(F)cn2)nnc1-c1ccc(C)o1 [Example 109.0] | 9.06
COc1cccc(OC)c1-n1c(NS(=O)(=O)[C@H](C)[C@@H](O)c2cn3ccccc3n2)nnc1-c1ccc(C)o1 (racemic) [Example 269.0, (1R,2S)—N-(4-(2,6-Dimethoxyphenyl)-5-(5-methyl-2-furanyl)-4H-1,2,4-triazol-3-yl)-1-hydroxy-1-imidazo[1,2-a]pyridin-2-yl-2-propanesulfonamide and (1S,2R)—N-(4-(2,6-dimethoxyphenyl)-5-(5-methyl-2-furanyl)-4H-1,2,4-triazol-3-yl)-1-hydroxy-1-imidazo[1,2-a]pyridin-2-yl-2-propanesulfonamide] | 9.31
COc1cccc(OC)c1-n1c(NS(=O)(=O)c2cccc([C@H](C)O)c2)nnc1-c1ccc(C)o1 (single isomer, unassigned) [Example 410.0, (R)-N-(4-(2,6-dimethoxyphenyl)-5-(5-methylfuran-2-yl)-4H-1,2,4-triazol-3-yl)-3-(1-hydroxyethyl)benzenesulfonamide or (S)-N-(4-(2,6-dimethoxyphenyl)-5-(5-methylfuran-2-yl)-4H-1,2,4-triazol-3-yl)-3-(1-hydroxyethyl)benzenesulfonamide] | 7.96
COCC[C@@H](Cc1ncc(C)cn1)S(=O)(=O)Nc1nnc(-c2ccc(C)o2)n1-c1c(OC)cccc1OC (racemic) [Example 76.0, (2R)—N-(4-(2,6-dimethoxyphenyl)-5-(5-methyl-2-furanyl)-4H-1,2,4-triazol-3-yl)-4-methoxy-1-(5-methyl-2-pyrimidinyl)-2-butanesulfonamide and (2S)—N-(4-(2,6-dimethoxyphenyl)-5-(5-methyl-2-furanyl)-4H-1,2,4-triazol-3-yl)-4-methoxy-1-(5-methyl-2-pyrimidinyl)-2-butanesulfonamide] | 9.22
COc1cccc(OC)c1-n1c(NS(=O)(=O)[C@H]2C[C@@H](O)CN(c3cncc(C#N)n3)C2)nnc1-c1ccc(C)o1 (single isomer, unassigned) [Example 321.0, (3S,5R)-1-(6-Cyano-2-pyrazinyl)-N-(4-(2,6-dimethoxyphenyl)-5-(5-methyl-2-furanyl)-4H-1,2,4-triazol-3-yl)-5-hydroxy-3-piperidinesulfonamide or (3R,5S)-1-(6-cyano-2-pyrazinyl)-N-(4-(2,6-dimethoxyphenyl)-5-(5-methyl-2-furanyl)-4H-1,2,4-triazol-3-yl)-5-hydroxy-3-piperidinesulfonamide] | 9.74
COc1cccc(OC)c1-n1c(NS(=O)(=O)C[C@](C)(O)c2ncc(C#N)cn2)nnc1-c1ccc(C)o1 (single isomer, unassigned) [Example 233.0, (R)-2-(5-Cyanopyrimidin-2-yl)-N-(4-(2,6-dimethoxyphenyl)-5-(5-methylfuran-2-yl)-4H-1,2,4-triazol-3-yl)-2-hydroxypropane-1-sulfonamide or (S)-2-(5-cyanopyrimidin-2-yl)-N-(4-(2,6-dimethoxyphenyl)-5-(5-methylfuran-2-yl)-4H-1,2,4-triazol-3-yl)-2-hydroxypropane-1-sulfonamide] | 9.30
COc1cccc(OC)c1-n1c(NS(=O)(=O)C[C@H](O)c2ccc(C#N)cn2)nnc1-c1ccc(C)o1 (single isomer, unassigned) [Example 58.0, (2R)-2-(5-cyano-2-pyridinyl)-N-(4-(2,6-dimethoxyphenyl)-5-(5-methyl-2-furanyl)-4H-1,2,4-triazol-3-yl)-2-hydroxyethanesulfonamide or (2S)-2-(5-cyano-2-pyridinyl)-N-(4-(2,6-dimethoxyphenyl)-5-(5-methyl-2-furanyl)-4H-1,2,4-triazol-3-yl)-2-hydroxyethanesulfonamide] | 9.89
COc1cccc(OC)c1-n1c(NS(=O)(=O)CCc2ccc(C#N)cn2)nnc1-c1ccco1 [Example 35.0, 2-(5-cyano-2-pyridinyl)-N-(4-(2,6-dimethoxyphenyl)-5-(2-furanyl)-4H-1,2,4-triazol-3-yl)ethanesulfonamide] | 8.46
COc1cccc(OC)c1-n1c(NS(=O)(=O)[C@@H](C)[C@@H](C)c2ncc(F)cn2)nnc1-c1ccc(C)o1 [Example 110.0] | 9.01
COc1cccc(OC)c1-n1c(NS(=O)(=O)CCc2ncc(Cl)cc2-c2ccncc2)nnc1-c1ccco1 [Example 222.0, 2-(5-chloro-3,4′-bipyridin-2-yl)-N-(4-(2,6-dimethoxyphenyl)-5-(2-furanyl)-4H-1,2,4-triazol-3-yl)ethanesulfonamide] | 9.51
COc1cccc(OC)c1-n1c(NS(=O)(=O)[C@@H](C)[C@H](C)c2cnc(C)cn2)nnc1-c1ccc(C)o1 [Example 148.0, (2S,3R)—N-(4-(2,6-Dimethoxyphenyl)-5-(5-methyl-2-furanyl)-4H-1,2,4-triazol-3-yl)-3-(5-methyl-2-pyrazinyl)-2-butanesulfonamide] | 9.72
COc1cccc(OC)c1-n1c(NS(=O)(=O)[C@@H]2CCCN(C(=O)N(C)C)C2)nnc1-c1ccco1.COc1cccc(OC)c1-n1c(NS(=O)(=O)[C@H]2CCCN(C(=O)N(C)C)C2)nnc1-c1ccco1 (mixture of isomers) [Example 338.0, (R)-3-(N-(4-(2,6-Dimethoxyphenyl)-5-(furan-2-yl)-4H-1,2,4-triazol-3-yl)sulfamoyl)-N,N-dimethylpiperidine-1-carboxamide and (S)-3-(N-(4-(2,6-dimethoxyphenyl)-5-(furan-2-yl)-4H-1,2,4-triazol-3-yl)sulfamoyl)-N,N-dimethylpiperidine-1-carboxamide] | 7.72
COc1cccc(OC)c1-n1c(NS(=O)(=O)[C@H](C)[C@H](O)c2ccccn2)nnc1-c1ccc(C)o1 (stereo in doubt) [Example 90.0, (1R,2R)-N-(4-(2,6-dimethoxyphenyl)-5-(5-methylfuran-2-yl)-4H-1,2,4-triazol-3-yl)-1-hydroxy-1-(pyridin-2-yl)propane-2-sulfonamide compound and (1S,2S)-N-(4-(2,6-dimethoxyphenyl)-5-(5-methylfuran-2-yl)-4H-1,2,4-triazol-3-yl)-1-hydroxy-1-(pyridin-2-yl)propane-2-sulfonamide] | 8.41
